{"source": "paper PMC12459522", "about": "“Design and synthesis of N-substituted-2-butyl-4-chloro-1H-imidazole derivatives as potential ACE inhibitors: in vitro study, in-silico analysis, and a multifaceted CSD-supported crystallographic investigation” (RSC Advances, 2025)", "molecular_target": "ACE (Ovis aries, UniProt A0ACI6QSL6)", "sequence (A0ACI6QSL6 entry or part of it)": "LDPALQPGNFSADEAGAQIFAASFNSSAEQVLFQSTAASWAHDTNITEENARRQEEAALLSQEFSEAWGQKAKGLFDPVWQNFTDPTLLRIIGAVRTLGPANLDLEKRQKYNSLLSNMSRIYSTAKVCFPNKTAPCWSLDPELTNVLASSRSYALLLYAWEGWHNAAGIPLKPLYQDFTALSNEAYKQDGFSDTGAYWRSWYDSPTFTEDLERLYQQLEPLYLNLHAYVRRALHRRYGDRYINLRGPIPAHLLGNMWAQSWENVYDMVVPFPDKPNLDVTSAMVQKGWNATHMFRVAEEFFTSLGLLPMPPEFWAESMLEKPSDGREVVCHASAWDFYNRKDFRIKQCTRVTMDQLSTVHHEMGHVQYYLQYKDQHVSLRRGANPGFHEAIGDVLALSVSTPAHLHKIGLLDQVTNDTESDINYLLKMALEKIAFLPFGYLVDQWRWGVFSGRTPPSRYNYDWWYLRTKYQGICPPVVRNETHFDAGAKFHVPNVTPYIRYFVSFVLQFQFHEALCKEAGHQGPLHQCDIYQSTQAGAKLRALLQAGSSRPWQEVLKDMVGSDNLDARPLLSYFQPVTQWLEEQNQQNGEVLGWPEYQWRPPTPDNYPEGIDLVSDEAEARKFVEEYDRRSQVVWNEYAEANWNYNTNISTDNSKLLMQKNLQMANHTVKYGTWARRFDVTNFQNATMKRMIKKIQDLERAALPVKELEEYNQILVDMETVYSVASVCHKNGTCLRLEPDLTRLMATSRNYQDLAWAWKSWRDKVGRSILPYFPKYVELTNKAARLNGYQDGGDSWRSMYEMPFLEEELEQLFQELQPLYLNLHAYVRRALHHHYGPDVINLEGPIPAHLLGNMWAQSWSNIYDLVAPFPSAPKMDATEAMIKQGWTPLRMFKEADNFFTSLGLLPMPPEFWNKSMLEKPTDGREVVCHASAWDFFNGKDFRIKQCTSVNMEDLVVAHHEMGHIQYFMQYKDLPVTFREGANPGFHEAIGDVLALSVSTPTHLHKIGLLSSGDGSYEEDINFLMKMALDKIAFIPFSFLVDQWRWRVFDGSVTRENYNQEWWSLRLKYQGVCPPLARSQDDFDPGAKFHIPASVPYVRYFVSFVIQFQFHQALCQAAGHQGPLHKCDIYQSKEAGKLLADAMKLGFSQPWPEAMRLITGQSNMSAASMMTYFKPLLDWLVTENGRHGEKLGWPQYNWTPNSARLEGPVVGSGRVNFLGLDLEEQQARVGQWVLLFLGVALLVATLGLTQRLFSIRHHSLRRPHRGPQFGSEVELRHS", "experiment": "In vitro colorimetric ACE inhibition assay (HHL substrate, hippuric acid release, 410 nm)", "type": "biochemical, sheep", "protocol": "The ACE enzyme extract was preincubated with various concentrations of test compounds (4a–f) ranging from 250 nM to 25 μM, alongside the standard lisinopril (100–500 nM), for 10 minutes at 37 °C. The reaction was initiated by adding sodium borate buffer containing 0.3 M sodium chloride and 5 mM HHL, followed by a 30 minutes incubation at 37 °C. To terminate the reaction, 60 μL of 1 M HCl was added, which was subsequently followed by the addition of 120 μL of pyridine and 60 μL of benzene sulfonyl chloride for color development. The mixture was then cooled on ice for 5 minutes, and the resulting yellow color was measured spectrophotometrically at 410 nm. The reduction in HA concentration during the inhibition reaction, compared with that during the control reaction, was expressed as % inhibition, and the IC50 values were calculated via semilogarithmic plots. […] The IC50 values for the compounds and the standard lisinopril are presented in Table 1, and a bar graph comprising % inhibition is depicted in Fig. 2.\nSheep kidney acetone powder was prepared in the laboratory according to a modified protocol by Hector et al.[24] Fresh sheep kidney tissue was homogenized with prechilled acetone (1 : 3) and vacuum-filtered using a Buchner funnel. Re-extraction was performed until the solid residue turned colorless. This residue was air-dried and sifted to obtain a uniform powder, which was stored in an airtight container at 0–4 °C.\nACE was extracted from the prepared acetone powder as described by Jimsheena et al.[25] One gram of acetone powder was extracted via 10 mL of sodium borate buffer (0.05 M, pH 8.2) containing 0.3 M sodium chloride and 0.5% Triton X-100 at 4 °C for 18 hours. This extract was later centrifuged at 15 000g for 60 minutes at 4 °C. The supernatant was collected and dialyzed against the same buffer without Triton X-100 (3 L, the buffer was changed 3 times) for 24 hours. This extract was stored at −20 °C until further use. The specific activity was 0.8234 units per mg of protein.\nACE activity was calculated by measuring the release of hippuric acid (HA) from the substrate hippuryl-histidyl-leucine (HHL). One unit of ACE activity is defined as the amount of enzyme that releases 1 μmol of HA per minute at 37 °C and pH 8.2. The ACE enzyme extract was preincubated with different concentrations of the test compounds (250 nM to 25 μM) and a standard drug solution (lisinopril, 100–500 nM) for 10 minutes at 37 °C. The reaction was initiated by the addition of sodium borate buffer (0.05 M, pH 8.2) containing 0.3 M sodium chloride and 5 mM HHL. The mixture was incubated at 37 °C for 30 minutes, followed by the addition of 60 μL of 1 M HCl to stop the reaction. This was followed by the addition of 120 μL of pyridine and 60 μL of […] sulfonyl chloride (BSC) for color development. The mixture was mixed gently and cooled on ice for 5 minutes. The yellow color developed was measured spectrophotometrically at 410 nm.[25] The reduced HA concentration in the inhibition reaction compared with the control reaction is expressed as % inhibition, which was calculated as:% inhibition = 100 − (Atest/Acontrol) × 100,where Atest = absorbance of the test reaction and Acontrol = absorbance of the control reaction.", "key": {"[1]": {"settings": "sheep kidney ACE extract, HHL substrate, 37 °C, pH 8.2, read-out: IC50 against the ACE"}}, "note": "Like-named read-outs stand apart in the source and are kept apart here.", "data": [{"compound": "2-(2-Butyl-4-chloro-5-(hydroxymethyl)-1H-imidazol-1-yl)-1-(naphthalen-1-yl)ethan-1-ol [4d]", "values": [{"measurement": "IC50", "setting": "[1]", "value": "2120 ± 15", "unit": "nM"}]}, {"compound": "CCCCc1nc(Cl)c(CO)n1CC(O)c1ccc(Cl)cc1", "note": "(stereo not shown) [4e, 2-(2-Butyl-4-chloro-5-(hydroxymethyl)-1H-imidazol-1-yl)-1-(4-chlorophenyl)ethan-1-ol]", "values": [{"measurement": "IC50", "setting": "[1]", "value": "4890 ± 68", "unit": "nM"}]}, {"compound": "NCCCC[C@H](N[C@@H](CCc1ccccc1)C(=O)O)C(=O)N1CCC[C@H]1C(=O)O", "note": "[Lisinopril, reference compound]", "values": [{"measurement": "IC50", "value": "300 ± 135", "unit": "nM"}]}, {"compound": "CCCCc1nc(Cl)c(CO)n1CC(O)c1ccc(OC)cc1", "note": "(stereo not shown) [4a, 2-(2-Butyl-4-chloro-5-(hydroxymethyl)-1H-imidazol-1-yl)-1-(4-methoxyphenyl)ethan-1-ol]", "values": [{"measurement": "IC50", "setting": "[1]", "value": "2470 ± 102", "unit": "nM"}]}, {"compound": "CCCCc1nc(Cl)c(CO)n1CC(O)c1ccc(F)cc1", "note": "(stereo not shown) [4f, 2-(2-Butyl-4-chloro-5-(hydroxymethyl)-1H-imidazol-1-yl)-1-(4-fluorophenyl)ethan-1-ol]", "values": [{"measurement": "IC50", "setting": "[1]", "value": "7570 ± 85", "unit": "nM"}]}, {"compound": "CCCCc1nc(Cl)c(CO)n1CC(O)c1ccc([N+](=O)[O-])cc1", "note": "(stereo not shown) [4b, 2-(2-Butyl-4-chloro-5-(hydroxymethyl)-1H-imidazol-1-yl)-1-(4-nitrophenyl)ethan-1-ol]", "values": [{"measurement": "IC50", "setting": "[1]", "value": "1310 ± 26", "unit": "nM"}]}, {"compound": "CCCCc1nc(Cl)c(CO)n1CC(O)c1ccc(C)cc1", "note": "(stereo not shown) [4c, 2-(2-Butyl-4-chloro-5-(hydroxymethyl)-1H-imidazol-1-yl)-1-(p-tolyl)ethan-1-ol]", "values": [{"measurement": "IC50", "setting": "[1]", "value": "1560 ± 65", "unit": "nM"}]}]}
